Assay in all cases: p-nitrophenyl glycoside hydrolysis, A405, […] min
Common to all, as to assay type: biochemical

Assay [1] concerns the target T1, α-L-fucosidase from Homo sapiens (Homo sapiens, UniProt P04066).
T1 construct: gene FUCA1
T1 sequence (P04066 32-466): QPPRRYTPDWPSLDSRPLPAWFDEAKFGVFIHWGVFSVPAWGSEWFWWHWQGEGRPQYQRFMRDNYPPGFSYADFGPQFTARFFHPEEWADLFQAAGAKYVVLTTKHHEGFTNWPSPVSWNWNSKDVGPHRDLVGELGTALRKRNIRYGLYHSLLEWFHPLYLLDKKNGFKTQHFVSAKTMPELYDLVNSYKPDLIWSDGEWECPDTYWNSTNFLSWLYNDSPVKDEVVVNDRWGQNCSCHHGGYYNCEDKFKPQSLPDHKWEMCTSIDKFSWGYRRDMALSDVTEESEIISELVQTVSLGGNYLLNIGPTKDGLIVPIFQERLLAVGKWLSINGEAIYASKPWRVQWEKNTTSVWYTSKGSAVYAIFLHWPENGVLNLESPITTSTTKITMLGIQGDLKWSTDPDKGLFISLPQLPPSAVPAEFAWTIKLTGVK
The conditions noted are these: read-out: α-L-Fuc.

For assay [2], the target named is α-galactosidase from Green coffee (Coffea arabica, UniProt Q42656). The conditions noted are these: read-out: α-Gal.
α-galactosidase from Green coffee, sequence (Q42656 16-378): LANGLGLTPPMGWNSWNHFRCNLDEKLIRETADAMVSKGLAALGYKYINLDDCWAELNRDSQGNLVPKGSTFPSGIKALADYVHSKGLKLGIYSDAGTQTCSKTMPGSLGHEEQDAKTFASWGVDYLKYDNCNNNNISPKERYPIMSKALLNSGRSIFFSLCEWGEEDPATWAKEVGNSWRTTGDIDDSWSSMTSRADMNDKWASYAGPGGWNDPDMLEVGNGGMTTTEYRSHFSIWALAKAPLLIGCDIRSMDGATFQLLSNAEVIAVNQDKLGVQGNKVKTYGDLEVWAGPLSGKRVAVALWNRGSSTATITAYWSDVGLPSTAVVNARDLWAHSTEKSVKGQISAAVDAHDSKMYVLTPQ
In assay [3] the target is T2, β-galactosidase from Escherichia coli (Escherichia coli, UniProt P00722).
T2 construct: gene lacZ
T2 sequence (P00722 2-1024): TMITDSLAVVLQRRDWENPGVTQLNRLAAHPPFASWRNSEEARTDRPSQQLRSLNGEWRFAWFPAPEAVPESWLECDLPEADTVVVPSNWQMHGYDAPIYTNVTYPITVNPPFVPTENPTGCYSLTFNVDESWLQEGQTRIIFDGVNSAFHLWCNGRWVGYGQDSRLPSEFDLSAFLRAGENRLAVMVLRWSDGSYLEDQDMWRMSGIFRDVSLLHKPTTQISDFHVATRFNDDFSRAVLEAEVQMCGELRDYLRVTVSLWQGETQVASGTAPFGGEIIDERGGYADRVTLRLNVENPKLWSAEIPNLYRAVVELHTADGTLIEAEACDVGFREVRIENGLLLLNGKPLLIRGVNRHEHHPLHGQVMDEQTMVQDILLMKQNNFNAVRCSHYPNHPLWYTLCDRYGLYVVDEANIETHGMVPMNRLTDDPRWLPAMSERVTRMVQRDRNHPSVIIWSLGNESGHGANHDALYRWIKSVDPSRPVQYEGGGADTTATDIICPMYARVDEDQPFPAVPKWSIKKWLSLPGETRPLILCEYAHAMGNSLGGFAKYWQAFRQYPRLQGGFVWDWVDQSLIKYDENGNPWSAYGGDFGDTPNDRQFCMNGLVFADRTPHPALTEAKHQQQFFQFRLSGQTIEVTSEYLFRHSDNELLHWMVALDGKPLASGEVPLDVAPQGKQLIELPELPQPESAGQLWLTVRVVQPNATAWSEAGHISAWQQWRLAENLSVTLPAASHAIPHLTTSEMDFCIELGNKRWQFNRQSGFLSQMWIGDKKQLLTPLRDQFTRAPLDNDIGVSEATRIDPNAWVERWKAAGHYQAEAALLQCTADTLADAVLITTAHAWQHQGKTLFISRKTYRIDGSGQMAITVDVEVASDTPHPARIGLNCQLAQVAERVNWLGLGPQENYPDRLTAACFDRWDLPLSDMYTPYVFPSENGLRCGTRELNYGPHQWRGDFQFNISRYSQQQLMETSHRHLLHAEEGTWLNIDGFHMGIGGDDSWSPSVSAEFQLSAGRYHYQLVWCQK
The conditions noted are these: read-out: β-Gal.

Data on three compounds can be found in paper PMC7828477, “Synthesis and Evaluation of Novel Iminosugars Prepared from Natural Amino Acids” (Molecules, 2021).

Structures can show the parent of a compound that is named as a salt.

Turning to `C[C@@H]1NC[C@H]2[C@H](CO)[C@H]2[C@H]1O` [6b, (1S,4S,5R,6S,7S)-7-(hydroxymethyl)-4-methyl-3-azabicyclo[4.1.0]heptan-5-ol], the activity at 5000 µM in assay [1] stood at 142%.

In the case of `O=C(O)[C@H]1[C@@H]2CN[C@@H](CO)[C@@H](O)[C@@H]21` [10a, (1R,4S,5S,6S,7S)-7-carboxy-5-hydroxy-4-(hydroxymethyl)-3-azabicyclo[4.1.0]heptan-3-ium trifluoroacetate], the activity at 5000 µM in assay [2] was 154%.

Turning to `OC[C@@H]1[C@@H]2CN[C@@H](CO)[C@@H](O)[C@H]12` [11b], the activity at 5000 µM in assay [3] came out at 25%.
